We go through 2 compounds from patent US20090325986A1, “Deazapurine Analogs of 1'-Aza-L-Nucleosides” (priority 2005, published 2009).

Structures are written as SMILES.

Common to all, as to assay: biochemical
The target of assay [1] is bovine PNPase (Bos taurus, UniProt P55859). Particulars: for Ki: B. taurus PNPase. The text has this:
(§1) The inhibition constants KI are the dissociation constants for the enzyme-inhibitor complex measured from initial reaction rates. For many, but not all, immucillin inhibitors, a slow-onset of inhibition then occurs consequent upon a time dependent conformational change in the enzyme that leads to tighter binding characterised by the constant KI* (J. F. Morrison and C. T. Walsh, Adv, Enzymol. Relat. Areas Mol. Biol., 1988, 61, 201-310).

Assay [2] concerns the target plasmodial PNPase (Plasmodium falciparum, UniProt Q8I3X4).
Excerpt: as §1

Assay [3] deals with human PNPase (Homo sapiens, UniProt P00491). As to conditions: for Ki: H. sapiens PNPase.
Excerpt: as §1

[4] abbreviates: Ki*, tighter binding after slow-onset inhibition.
Where [5] appears, read: Ki, dissociation constant of enzyme-inhibitor complex from initial reaction rates.
Setting [6] is: Ki, Plasmodium falciparum PNPase, dissociation constant of enzyme-inhibitor complex from initial reaction rates.

plasmodial PNPase, sequence (Q8I3X4 whole entry): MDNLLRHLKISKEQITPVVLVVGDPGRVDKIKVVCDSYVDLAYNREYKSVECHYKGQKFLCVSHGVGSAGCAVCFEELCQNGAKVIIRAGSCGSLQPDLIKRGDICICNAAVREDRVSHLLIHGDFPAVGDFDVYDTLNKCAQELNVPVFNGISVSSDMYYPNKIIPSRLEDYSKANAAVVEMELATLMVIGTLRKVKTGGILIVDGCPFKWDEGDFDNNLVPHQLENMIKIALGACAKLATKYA
bovine PNPase, sequence (P55859 whole entry): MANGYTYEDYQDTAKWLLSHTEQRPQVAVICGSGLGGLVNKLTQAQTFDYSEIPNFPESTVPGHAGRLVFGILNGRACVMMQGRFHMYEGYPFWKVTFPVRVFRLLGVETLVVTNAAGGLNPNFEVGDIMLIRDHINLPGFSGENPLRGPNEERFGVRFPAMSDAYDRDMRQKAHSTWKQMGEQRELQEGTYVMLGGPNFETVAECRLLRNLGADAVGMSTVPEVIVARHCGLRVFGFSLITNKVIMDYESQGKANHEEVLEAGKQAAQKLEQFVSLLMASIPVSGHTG
human PNPase, sequence (P00491 whole entry): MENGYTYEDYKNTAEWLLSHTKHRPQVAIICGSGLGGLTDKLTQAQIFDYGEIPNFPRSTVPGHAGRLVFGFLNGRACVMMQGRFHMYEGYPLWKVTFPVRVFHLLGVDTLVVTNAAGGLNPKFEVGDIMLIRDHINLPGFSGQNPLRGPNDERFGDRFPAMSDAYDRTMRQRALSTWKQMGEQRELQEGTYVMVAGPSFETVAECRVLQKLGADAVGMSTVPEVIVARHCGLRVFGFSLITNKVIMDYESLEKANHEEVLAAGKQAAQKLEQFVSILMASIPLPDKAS

With `O=c1[nH]cnc2c(CN3C[C@H](CO)[C@@H](O)C3)c[nH]c12` [[(+)-10], reference compound], the Ki (as a rule, the equilibrium dissociation constant of an inhibitor or competing ligand from its target) in assay [1] (setting [4]) came to 0.11 ± 0.014 nM; in assay [1] (setting [5]) it was 2.1 ± 0.3 nM; in assay [2] (setting [6]) it was 0.5 ± 0.04 nM. The “Ki*” value in assay [2] (Plasmodium falciparum PNPase, tighter binding after slow-onset inhibition) is reported as “Not observed”.
With `O=c1[nH]cnc2c(CN3C[C@@H](CO)[C@H](O)C3)c[nH]c12` [[(−)-10], (3S,4S)-1-[(9-Deazahypoxanthin-9-yl)methyl]-4-(hydroxymethyl)pyrrolidin-3-ol], the inhibitory constant (Ki) was determined as 0.5 ± 0.1 nM in assay [1] (setting [4]); 19 ± 5 nM in assay [1] (setting [5]); 0.68 ± 0.26 nM in assay [3] (setting [4]); 1.5 ± 0.1 nM in assay [3] (setting [5]); 80 ± 7 nM in assay [2] (Ki*, Plasmodium falciparum PNPase, tighter binding after slow-onset inhibition); 1700 ± 300 nM in assay [2] (setting [6]). For the same compound, the type of inhibition entry in assay [1] (bovine PNP), in assay [3] (human PNP) and in assay [2] (Plasmodium falciparum PNP) was “slow onset tight binding inhibitor” each time.
